IC50, inhibition and Shift data for 15 molecules are collected here from patent US8569292B2, “Cyclic inhibitors of 11β-hydroxysteroid dehydrogenase 1” (Vitae Pharmaceuticals, Inc., priority 2008, dated 2013).

In one assay the target is CYP3A4 (Homo sapiens, UniProt P08684). Nature of the assay: Biological Test Example 6: CYP3A4 inhibition (erythromycin N-demethylation). In kind it is in vitro ADME.
The target in the next assay is T1, CYP2C9 (Homo sapiens, UniProt P11712).
T1 construct: purchased Invitrogen 2859; host or cells: insect cells infected with baculovirus (microsomes)
T1 sequence (P11712 whole entry): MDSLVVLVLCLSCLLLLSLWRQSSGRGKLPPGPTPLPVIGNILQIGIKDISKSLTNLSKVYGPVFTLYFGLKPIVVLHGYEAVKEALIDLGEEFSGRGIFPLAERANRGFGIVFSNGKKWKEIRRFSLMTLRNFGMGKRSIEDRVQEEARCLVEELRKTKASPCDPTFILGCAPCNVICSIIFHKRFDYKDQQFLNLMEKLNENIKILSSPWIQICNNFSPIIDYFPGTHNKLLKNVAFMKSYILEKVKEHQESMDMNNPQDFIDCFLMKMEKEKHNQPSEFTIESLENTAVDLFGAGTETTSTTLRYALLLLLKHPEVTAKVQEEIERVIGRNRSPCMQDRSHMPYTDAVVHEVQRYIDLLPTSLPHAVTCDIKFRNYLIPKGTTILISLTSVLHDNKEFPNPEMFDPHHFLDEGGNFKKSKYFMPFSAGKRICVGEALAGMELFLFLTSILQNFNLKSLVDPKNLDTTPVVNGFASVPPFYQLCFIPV
Description: Biological Test Example 7: CYP2C9 inhibition (naproxen O-demethylation). In kind it is in vitro ADME.

A further assay concerns the target CYP2C19 (Homo sapiens, UniProt P33261). Description: Biological Test Example 8: CYP2C19 inhibition (diazepam N-demethylation). Format: in vitro ADME.
Assay [1] deals with T2, 11β-HSD1 (Homo sapiens, UniProt P28845). Description: biochemical. Conditions: for inhibition at 0.1 µM: read-out: Average % inhibition at 100 nM.
T2 sequence (P28845 whole entry): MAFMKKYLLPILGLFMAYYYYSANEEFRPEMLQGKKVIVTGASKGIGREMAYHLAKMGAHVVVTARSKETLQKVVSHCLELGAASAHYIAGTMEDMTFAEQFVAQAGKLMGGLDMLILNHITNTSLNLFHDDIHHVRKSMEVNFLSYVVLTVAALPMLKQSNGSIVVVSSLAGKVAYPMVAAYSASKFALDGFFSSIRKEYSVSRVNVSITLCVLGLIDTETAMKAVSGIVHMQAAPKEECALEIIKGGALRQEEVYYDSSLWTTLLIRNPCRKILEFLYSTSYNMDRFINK
Assay [2] concerns the target T2, 11β-HSD1. Nature of the assay: Biological Test Example 4: microsomal 11β-HSD1 in the presence of 50% human plasma. The note with it: for Shift: IC50 in Test Example 4 divided by IC50 in Test Example 1.
The mark [3] stands for this setting: Biological Test Example 1 IC50 (nM).
[4] abbreviates: IC50 Range, Biological Test Example 1.

Sequence of CYP2C19 (P33261 whole entry): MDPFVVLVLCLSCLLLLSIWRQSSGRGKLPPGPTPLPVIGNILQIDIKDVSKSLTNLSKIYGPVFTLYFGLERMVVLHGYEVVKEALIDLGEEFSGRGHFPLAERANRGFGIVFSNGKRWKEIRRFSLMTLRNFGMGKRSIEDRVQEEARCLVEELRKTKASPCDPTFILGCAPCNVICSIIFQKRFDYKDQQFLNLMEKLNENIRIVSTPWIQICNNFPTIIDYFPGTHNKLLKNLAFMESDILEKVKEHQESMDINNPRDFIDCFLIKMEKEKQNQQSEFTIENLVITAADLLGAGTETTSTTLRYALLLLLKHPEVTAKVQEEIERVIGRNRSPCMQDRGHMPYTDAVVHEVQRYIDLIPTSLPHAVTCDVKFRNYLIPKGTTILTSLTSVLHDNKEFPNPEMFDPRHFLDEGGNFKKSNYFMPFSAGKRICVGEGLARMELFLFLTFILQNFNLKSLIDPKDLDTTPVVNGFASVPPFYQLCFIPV
Sequence of CYP3A4 (P08684 whole entry): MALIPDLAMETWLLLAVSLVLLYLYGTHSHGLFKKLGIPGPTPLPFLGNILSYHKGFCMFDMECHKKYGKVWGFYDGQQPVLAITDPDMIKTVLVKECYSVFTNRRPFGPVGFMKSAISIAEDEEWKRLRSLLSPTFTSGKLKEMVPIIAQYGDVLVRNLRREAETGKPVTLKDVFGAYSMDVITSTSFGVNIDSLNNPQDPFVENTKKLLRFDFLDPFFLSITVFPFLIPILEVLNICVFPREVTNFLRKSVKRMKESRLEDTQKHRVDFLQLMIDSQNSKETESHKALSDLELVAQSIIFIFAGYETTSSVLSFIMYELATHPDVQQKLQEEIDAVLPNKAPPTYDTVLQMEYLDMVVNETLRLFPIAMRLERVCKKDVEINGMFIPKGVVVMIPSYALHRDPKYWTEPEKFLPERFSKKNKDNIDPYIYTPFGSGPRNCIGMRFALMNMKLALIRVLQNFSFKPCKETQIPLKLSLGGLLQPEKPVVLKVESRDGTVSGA

As to `C[C@@H](c1ccc(-c2ccc(C(=O)NC(C)(C)C)cn2)cc1)N1CC[C@](CC(C)(C)C#N)(c2ccccc2)OC1=O` [EXAMPLE 3, N-tert-butyl-6-(4-((S)-1-((R)-6-(2-cyano-2-methylpropyl)-2-oxo-6-phenyl-1,3-oxazinan-3-yl)ethyl)phenyl)nicotinamide], the IC50 (usually the concentration that inhibits the measured activity by half) against CYP3A4 was 2100 nM; at CYP2C9, 2500 nM; at CYP2C19 it was 3000 nM; against 11β-HSD1 [1] (setting [3]) it was 1 nM; at 11β-HSD1 [1] (setting [4]), < 100 nM; on 11β-HSD1 [2] it was 7.9 nM. The inhibition (in general, the percentage by which the read-out fell short of the control) at 0.1 µM on 11β-HSD1 [1] was 96.8%. Besides, at 11β-HSD1 [2], the Shift amounted to 8.0.

Turning to `C[C@@H](c1ccc(-c2ccc(C3CC3)nn2)cc1)N1CC[C@](CC(C)(C)O)(c2ccccc2)OC1=O` [EXAMPLE 4, (S)-3-((S)-1-(4-(6-cyclopropylpyridazin-3-yl)phenyl)ethyl)-6-(2-hydroxy-2-methylpropyl)-6-phenyl-1,3-oxazinan-2-one], the IC50 was 19600 nM against CYP3A4; 19800 nM against CYP2C9; 24200 nM against CYP2C19; 0.7 nM at 11β-HSD1 [1] (setting [3]); < 100 nM against 11β-HSD1 [1] (setting [4]); 4 nM at 11β-HSD1 [2]. The inhibition at 0.1 µM at 11β-HSD1 [1] came out at 96.3%. Also, at 11β-HSD1 [2], the Shift turned out to be 5.8.

Turning to `C[C@@H](c1ccc(-c2ccc(C(=O)NC(C)(C)C)nn2)cc1)N1CC[C@](CC(C)(C)C#N)(c2ccccc2)OC1=O` [EXAMPLE 9, N-tert-butyl-6-(4-((S)-1-((R)-6-(2-cyano-2-methylpropyl)-2-oxo-6-phenyl-1,3-oxazinan-3-yl)ethyl)phenyl)pyridazine-3-carboxamide], the IC50 at CYP3A4 was 48900 nM; on CYP2C9 it was > 50000 nM; against CYP2C19 it was 800 nM; against 11β-HSD1 [1] (setting [3]) it was 1.3 nM; against 11β-HSD1 [1] (setting [4]) it was < 100 nM; at 11β-HSD1 [2], 5.1 nM. Besides, the inhibition at 0.1 µM at 11β-HSD1 [1] turned out to be 92.4%. The Shift at 11β-HSD1 [2] is given as 3.9.

Regarding `C[C@@H](c1ccc(-c2ccc(C(=O)NC3CC3)nn2)cc1)N1CC[C@](CC(C)(C)O)(c2ccccc2)OC1=O` [EXAMPLE 10, N-cyclopropyl-6-(4-((S)-1-((S)-6-(2-hydroxy-2-methylpropyl)-2-oxo-6-phenyl-1,3-oxazinan-3-yl)ethyl)phenyl)pyridazine-3-carboxamide], the IC50 on CYP3A4 was 34900 nM; against CYP2C9, 21200 nM; against CYP2C19, 14500 nM; against 11β-HSD1 [1] (setting [3]), 2.5 nM; at 11β-HSD1 [1] (setting [4]), < 100 nM; at 11β-HSD1 [2], 7.5 nM. The inhibition at 0.1 µM on 11β-HSD1 [1] is 93.6%.

Take `C[C@@H](c1ccc(-c2ccc(C(=O)NC3CC3)nn2)cc1)N1CC[C@](CC(C)(C)C#N)(c2ccccc2)OC1=O` [EXAMPLE 11, 6-(4-((S)-1-((R)-6-(2-cyano-2-methylpropyl)-2-oxo-6-phenyl-1,3-oxazinan-3-yl)ethyl)phenyl)-N-cyclopropylpyridazine-3-carboxamide]: the concentration for half-maximal inhibition (IC50) was 8700 nM against CYP3A4; > 50000 nM on CYP2C9; 3700 nM against CYP2C19; 1 nM against 11β-HSD1 [1] (setting [3]); < 100 nM on 11β-HSD1 [1] (setting [4]); 3.4 nM at 11β-HSD1 [2]. In addition, on 11β-HSD1 [1], the inhibition at 0.1 µM amounted to 91.6%. For the same molecule, on 11β-HSD1 [2], the Shift was 3.5.

For the molecule `C[C@@H](c1ccc(-c2ncc(F)cn2)cc1)N1CC[C@](CC(C)(C)O)(c2ccccc2)OC1=O` [EXAMPLE 13, (S)-3-((S)-1-(4-(5-fluoropyrimidin-2-yl)phenyl)ethyl)-6-(2-hydroxy-2-methylpropyl)-6-phenyl-1,3-oxazinan-2-one], the IC50 was > 10000 nM at CYP3A4; > 10000 nM at CYP2C9; > 10000 nM on CYP2C19; 1.8 nM against 11β-HSD1 [1] (setting [3]); < 100 nM on 11β-HSD1 [1] (setting [4]); 10.5 nM on 11β-HSD1 [2]. Further, at 11β-HSD1 [1], the inhibition at 0.1 µM worked out at 92.1%.

For `C[C@@H](c1ccc(-c2cnc(C(=O)NC3CC3)nc2)cc1)N1CC[C@](CC(C)(C)O)(c2ccccc2)OC1=O` [EXAMPLE 15, N-cyclopropyl-5-(4-((S)-1-((S)-6-(2-hydroxy-2-methylpropyl)-2-oxo-6-phenyl-1,3-oxazinan-3-yl)ethyl)phenyl)pyrimidine-2-carboxamide], the IC50 at CYP3A4 is > 50000 nM; on CYP2C9, > 50000 nM; on CYP2C19, 12500 nM; on 11β-HSD1 [1] (setting [3]) it was 1.7 nM; on 11β-HSD1 [1] (setting [4]), < 100 nM; at 11β-HSD1 [2] it was 4.2 nM. Further, the inhibition at 0.1 µM at 11β-HSD1 [1] stood at 94.1%. In addition, at 11β-HSD1 [2], the Shift is recorded as 2.4.

On to `C[C@@H](c1ccc(-c2cnc(C(=O)NC3CC3)nc2)cc1)N1CC[C@](CC(C)(C)C#N)(c2ccccc2)OC1=O` [EXAMPLE 16, 5-(4-((S)-1-((R)-6-(2-cyano-2-methylpropyl)-2-oxo-6-phenyl-1,3-oxazinan-3-yl)ethyl)phenyl)-N-cyclopropylpyrimidine-2-carboxamide], for which the IC50 was 24900 nM against CYP3A4; > 50000 nM against CYP2C9; 6100 nM against CYP2C19; 0.8 nM against 11β-HSD1 [1] (setting [3]); < 100 nM on 11β-HSD1 [1] (setting [4]); 5.5 nM on 11β-HSD1 [2]. The inhibition at 0.1 µM on 11β-HSD1 [1] turned out to be 97.9%. Besides, the Shift on 11β-HSD1 [2] was determined as 6.9.

For `C[C@@H](c1ccc(-c2cnc(C(=O)NC(C)(C)C)nc2)cc1)N1CC[C@](CC(C)(C)O)(c2ccccc2)OC1=O` [EXAMPLE 17, N-tert-butyl-5-(4-((S)-1-((S)-6-(2-hydroxy-2-methylpropyl)-2-oxo-6-phenyl-1,3-oxazinan-3-yl)ethyl)phenyl)pyrimidine-2-carboxamide], the IC50 on CYP3A4 was 45300 nM; at CYP2C9 it was 17800 nM; against CYP2C19, 5900 nM; against 11β-HSD1 [1] (setting [3]), 2.2 nM; against 11β-HSD1 [1] (setting [4]) it was < 100 nM; on 11β-HSD1 [2], 5.7 nM. Besides, at 11β-HSD1 [1], the inhibition at 0.1 µM was 94%. For the same molecule, the Shift at 11β-HSD1 [2] is reported as 2.5.

For the molecule `C[C@@H](c1ccc(-c2nc(C(=O)NC3CC3)cs2)cc1)N1CC[C@](CC(C)(C)O)(c2ccccc2)OC1=O` [EXAMPLE 19, N-cyclopropyl-2-(4-((S)-1-((S)-6-(2-hydroxy-2-methylpropyl)-2-oxo-6-phenyl-1,3-oxazinan-3-yl)ethyl)phenyl)thiazole-4-carboxamide], the IC50 is 27100 nM against CYP3A4; 31700 nM against CYP2C9; 10300 nM against CYP2C19; 1.9 nM at 11β-HSD1 [1] (setting [3]); < 100 nM on 11β-HSD1 [1] (setting [4]); 19.8 nM at 11β-HSD1 [2]. The inhibition at 0.1 µM on 11β-HSD1 [1] was 94.6%. In addition, at 11β-HSD1 [2], the Shift is 10.4.

Take `C[C@@H](c1ccc(-c2nc(C(=O)NC(C)(C)C)cs2)cc1)N1CC[C@](CC(C)(C)O)(c2ccccc2)OC1=O` [EXAMPLE 22, N-tert-butyl-2-(4-((S)-1-((S)-6-(2-hydroxy-2-methylpropyl)-2-oxo-6-phenyl-1,3-oxazinan-3-yl)ethyl)phenyl)thiazole-4-carboxamide]: the IC50 at CYP3A4 is 5200 nM; against CYP2C9 it was 4500 nM; against CYP2C19 it was 3600 nM; at 11β-HSD1 [1] (setting [3]), 2.8 nM; at 11β-HSD1 [1] (setting [4]) it was < 100 nM; on 11β-HSD1 [2], 18.1 nM. Besides, the inhibition at 0.1 µM at 11β-HSD1 [1] is 90%.

In the case of `C[C@@H](c1ccc(-c2ccc(C#N)cn2)cc1)N1CC[C@](CCCO)(c2ccc(F)cc2)OC1=O` [EXAMPLE 101, 6-(4-((S)-1-((R)-6-(4-fluorophenyl)-6-(3-hydroxypropyl)-2-oxo-1,3-oxazinan-3-yl)ethyl)phenyl)nicotinonitrile], the IC50 is > 50000 nM at CYP3A4; 9900 nM against CYP2C9; > 50000 nM at CYP2C19; 1.2 nM against 11β-HSD1 [1] (setting [3]); < 100 nM against 11β-HSD1 [1] (setting [4]); 7.5 nM on 11β-HSD1 [2]. Moreover, the inhibition at 0.1 µM at 11β-HSD1 [1] stood at 100%. Moreover, the Shift at 11β-HSD1 [2] is listed as 6.0.

As to `Cc1nccc(-c2ccc([C@H](C)N3CC[C@](CC(C)(C)O)(c4ccccc4)OC3=O)cc2)n1` [EXAMPLE 135, (S)-6-(2-hydroxy-2-methylpropyl)-3-((S)-1-(4-(2-methylpyrimidin-4-yl)phenyl)ethyl)-6-phenyl-1,3-oxazinan-2-one], the IC50 against CYP3A4 was 22800 nM; against CYP2C9, 44400 nM; against CYP2C19, 35800 nM; on 11β-HSD1 [1] (setting [3]), 1.8 nM; at 11β-HSD1 [1] (setting [4]) it was < 100 nM; on 11β-HSD1 [2], 5.4 nM. For the same molecule, the inhibition at 0.1 µM on 11β-HSD1 [1] was 97.3%. In addition, the Shift on 11β-HSD1 [2] stood at 3.1.

In the case of `Cc1cc(-c2ccc([C@H](C)N3CC[C@](CC(C)(C)O)(c4ccc(F)cc4)OC3=O)cc2)cc(C)n1` [EXAMPLE 144, (S)-3-((S)-1-(4-(2,6-dimethylpyridin-4-yl)phenyl)ethyl)-6-(4-fluorophenyl)-6-(2-hydroxy-2-methylpropyl)-1,3-oxazinan-2-one], the IC50 against CYP3A4 was 11900 nM; at CYP2C9 it was 10200 nM; at CYP2C19, 9600 nM; on 11β-HSD1 [1] (setting [3]), 1.2 nM; on 11β-HSD1 [1] (setting [4]), < 100 nM; at 11β-HSD1 [2] it was 12 nM. Also, at 11β-HSD1 [1], the inhibition at 0.1 µM came to 98.6%. In addition, the Shift on 11β-HSD1 [2] was 9.8.

As to `Cc1ccc(-c2ccc([C@H](C)N3CC[C@](CC(C)(C)O)(c4ccc(F)cc4)OC3=O)cc2)nn1` [EXAMPLE 155, (S)-6-(4-fluorophenyl)-6-(2-hydroxy-2-methylpropyl)-3-((S)-1-(4-(6-methylpyridazin-3-yl)phenyl)ethyl)-1,3-oxazinan-2-one], the concentration for half-maximal inhibition (IC50) against CYP3A4 was > 50000 nM; against CYP2C9, 38900 nM; at CYP2C19 it was > 50000 nM; against 11β-HSD1 [1] (setting [3]), 2.1 nM; on 11β-HSD1 [1] (setting [4]), < 100 nM; at 11β-HSD1 [2], 6.4 nM. The inhibition at 0.1 µM on 11β-HSD1 [1] is 94.7%. Besides, on 11β-HSD1 [2], the Shift is 3.0.
